According to patent US4015974A, “Amido phosphorothiolates” (priority 1972, dated 1977):

Key:
Type in all cases: in vivo
[1] = test system: large crabgrass (Digitaria sanguinalis); experiment: Pre-emergence application, herbicidal effect on large crabgrass (Table 1); design: key: 0: not damaged; 5: completely killed; conditions: 20 days after application, score 0-5
In short: (§1)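 Pre-emergence soil application of wettable powders diluted in water over covered seeds (~10 cm pots). Greenhouse growth; visual 0–5 rating (0 none, 5 dead) at 20 days.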

[2] = test system: common lambsquarter (Chenopodium album); experiment: Pre-emergence application, herbicidal effect on common lambsquarter (Table 1); design: key: 0: not damaged; 5: completely killed; conditions: 20 days after application, score 0-5
In short: as §1

[3] = test system: common purslane (Portulaca oleracea); experiment: Pre-emergence application, herbicidal effect on common purslane (Table 1); design: key: 0: not damaged; 5: completely killed; conditions: 20 days after application, score 0-5
In short: as §1

[4] = test system: barnyard grass (Echinochloa crus-galli); experiment: Water application, herbicidal effect on barnyard grass (Table 2); design: key: 0: not damaged; 5: completely killed; conditions: 25 days, score 0-5
In short: (§2)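 Under water-lodged conditions, wettable-powder test compounds are applied to paddy soil carrying transplanted rice (3-leaf) and sown barnyard grass. Activity on these and on spontaneously emerged broad-leaved weeds is graded 0 to 5 twenty-five days later.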

[5] = test system: broad-leaved weeds, e.g., monochoria, false pimpernel and toothcup; experiment: Water application, herbicidal effect on broad-leaved weeds (Table 2); design: key: 0: not damaged; 5: completely killed; conditions: 25 days, score 0-5
In short: as §2

[6] = test system: redroot pigweed (Amaranthus retroflexus); experiment: Pre-emergence application, herbicidal effect on redroot pigweed (Table 1); design: key: 0: not damaged; 5: completely killed; conditions: 20 days after application, score 0-5
In short: as §1

rice = experiment: Water application, phytotoxicity on rice (Table 2); design: key: 0: no effect; 1: very slightly affected; 2: slightly affected; 3: moderately affected; 4: considerably affected; 5: completely killed; conditions: 25 days, score 0-5
In short: as §2

[7] = test system: barnyard grass (Echinochloa crus-galli); experiment: Pre-emergence application, herbicidal effect on barnyard grass (Table 1); design: key: 0: not damaged; 5: completely killed; conditions: 20 days after application, score 0-5
In short: as §1

radish = experiment: Pre-emergence application, herbicidal effect on radish (Table 1); design: key: 0: not damaged; 5: completely killed; conditions: 20 days after application, score 0-5
In short: as §1

Compound | Herbicidal effect, large crabgrass ([1]; 10 g./a.) | Herbicidal effect, large crabgrass ([1]; 20 g./a.) | Herbicidal effect, large crabgrass ([1]; 40 g./a.) | Herbicidal effect, common lambsquarter ([2]; 10 g./a.) | Herbicidal effect, common lambsquarter ([2]; 20 g./a.) | Herbicidal effect, common lambsquarter ([2]; 40 g./a.) | Herbicidal effect, common purslane ([3]; 10 g./a.) | Herbicidal effect, common purslane ([3]; 20 g./a.) | Herbicidal effect, common purslane ([3]; 40 g./a.) | Herbicidal effects, barnyard grass ([4]; 10 g/a) | Herbicidal effects, barnyard grass ([4]; 20 g/a) | Herbicidal effects, barnyard grass ([4]; 40 g/a) | Herbicidal effects, broad-leaved weeds ([5]; 10 g/a) | Herbicidal effects, broad-leaved weeds ([5]; 20 g/a) | Herbicidal effects, broad-leaved weeds ([5]; 40 g/a) | Herbicidal effect, redroot pigweed ([6]; 10 g./a.) | Herbicidal effect, redroot pigweed ([6]; 20 g./a.) | Herbicidal effect, redroot pigweed ([6]; 40 g./a.) | Phytotoxicity on rice (rice; 10 g/a) | Phytotoxicity on rice (rice; 20 g/a) | other results
CCOP(=O)(SC)SCC(=O)N1CCCCC1CC (stereo not drawn) [Compound 74] | 5 | 5 | 5 | 5 | 5 | 5 | 5 | 5 | 5 | 5 | 5 | 5 | 5 | 5 | 5 | 5 | 5 | 5 | 0 | 0 | Phytotoxicity on rice (rice; 40 g/a): 0; Herbicidal effect, barnyard grass ([7]; 10 g./a.): 5; Herbicidal effect, barnyard grass ([7]; 20 g./a.): 5; Herbicidal effect, barnyard grass ([7]; 40 g./a.): 5; Herbicidal effect, radish (radish; 10 g./a.): 0; Herbicidal effect, radish (radish; 20 g./a.): 1; Herbicidal effect, radish (radish; 40 g./a.): 2
CCOP(=O)(SCC)SCC(=O)N1CCCCC1CC (stereo not drawn) [Compound 75] | 5 | 5 | 5 | 5 | 5 | 5 | 5 | 5 | 5 | 5 | 5 | 5 | 5 | 5 | 5 | 5 | 5 | 5 | 0 | 0 | Phytotoxicity on rice (rice; 40 g/a): 1; Herbicidal effect, barnyard grass ([7]; 10 g./a.): 5; Herbicidal effect, barnyard grass ([7]; 20 g./a.): 5; Herbicidal effect, barnyard grass ([7]; 40 g./a.): 5; Herbicidal effect, radish (radish; 10 g./a.): 0; Herbicidal effect, radish (radish; 20 g./a.): 1; Herbicidal effect, radish (radish; 40 g./a.): 2
CCOP(=O)(SCC(=O)N1CCCCC1CC)SC(C)C (stereo not drawn) [Compound 76] | 5 | 5 | 5 | 5 | 5 | 5 | 5 | 5 | 5 | 5 | 5 | 5 | 5 | 5 | 5 | 5 | 5 | 5 | 0 | 0 | Phytotoxicity on rice (rice; 40 g/a): 0; Herbicidal effect, barnyard grass ([7]; 10 g./a.): 5; Herbicidal effect, barnyard grass ([7]; 20 g./a.): 5; Herbicidal effect, barnyard grass ([7]; 40 g./a.): 5; Herbicidal effect, radish (radish; 10 g./a.): 0; Herbicidal effect, radish (radish; 20 g./a.): 1; Herbicidal effect, radish (radish; 40 g./a.): 2
CCOP(=O)(SCC(=O)N1CCCCC1CC)SCC(C)C (stereo not drawn) [Compound 77] | 5 | 5 | 5 | 5 | 5 | 5 | 5 | 5 | 5 | 5 | 5 | 5 | 5 | 5 | 5 | 5 | 5 | 5 | 0 | 0 | Phytotoxicity on rice (rice; 40 g/a): 1; Herbicidal effect, barnyard grass ([7]; 10 g./a.): 5; Herbicidal effect, barnyard grass ([7]; 20 g./a.): 5; Herbicidal effect, barnyard grass ([7]; 40 g./a.): 5; Herbicidal effect, radish (radish; 10 g./a.): 0; Herbicidal effect, radish (radish; 20 g./a.): 0; Herbicidal effect, radish (radish; 40 g./a.): 0
CCCCCSP(=O)(OCC)SCC(=O)N1CCCCC1CC (stereo not drawn) [Compound 78] | 5 | 5 | 5 | 3 | 4 | 5 | 4 | 4 | 5 | 5 | 5 | 5 | 5 | 5 | 5 | 4 | 4 | 5 | 0 | 0 | Phytotoxicity on rice (rice; 40 g/a): 0; Herbicidal effect, barnyard grass ([7]; 10 g./a.): 5; Herbicidal effect, barnyard grass ([7]; 20 g./a.): 5; Herbicidal effect, barnyard grass ([7]; 40 g./a.): 5; Herbicidal effect, radish (radish; 10 g./a.): 0; Herbicidal effect, radish (radish; 20 g./a.): 0; Herbicidal effect, radish (radish; 40 g./a.): 0
CCOP(=O)(SCCC(C)C)SCC(=O)N1CCCCC1CC (stereo not drawn) [Compound 79] | 5 | 5 | 5 | 5 | 5 | 5 | 5 | 5 | 5 | 5 | 5 | 5 | 5 | 5 | 5 | 4 | 5 | 5 | 0 | 0 | Phytotoxicity on rice (rice; 40 g/a): 1; Herbicidal effect, barnyard grass ([7]; 10 g./a.): 5; Herbicidal effect, barnyard grass ([7]; 20 g./a.): 5; Herbicidal effect, barnyard grass ([7]; 40 g./a.): 5; Herbicidal effect, radish (radish; 10 g./a.): 0; Herbicidal effect, radish (radish; 20 g./a.): 0; Herbicidal effect, radish (radish; 40 g./a.): 1
C=C(C)CSP(=O)(OCC)SCC(=O)N1CCCCC1CC (stereo not drawn) [Compound 81] | 5 | 5 | 5 | 5 | 5 | 5 | 5 | 5 | 5 | 5 | 5 | 5 | 5 | 5 | 5 | 5 | 5 | 5 | 0 | 0 | Phytotoxicity on rice (rice; 40 g/a): 1; Herbicidal effect, barnyard grass ([7]; 10 g./a.): 5; Herbicidal effect, barnyard grass ([7]; 20 g./a.): 5; Herbicidal effect, barnyard grass ([7]; 40 g./a.): 5; Herbicidal effect, radish (radish; 10 g./a.): 0; Herbicidal effect, radish (radish; 20 g./a.): 0; Herbicidal effect, radish (radish; 40 g./a.): 1
C=C(Cl)CSP(=O)(OCC)SCC(=O)N1CCCCC1CC (stereo not drawn) [Compound 82] | 5 | 5 | 5 | 4 | 4 | 5 | 3 | 4 | 5 | 5 | 5 | 5 | 5 | 5 | 5 | 4 | 4 | 5 | 0 | 0 | Phytotoxicity on rice (rice; 40 g/a): 2; Herbicidal effect, barnyard grass ([7]; 10 g./a.): 5; Herbicidal effect, barnyard grass ([7]; 20 g./a.): 5; Herbicidal effect, barnyard grass ([7]; 40 g./a.): 5; Herbicidal effect, radish (radish; 10 g./a.): 0; Herbicidal effect, radish (radish; 20 g./a.): 0; Herbicidal effect, radish (radish; 40 g./a.): 1
